Laboratory results reported in patent US20240158446A1, “CYCLIC COMPOUND HAVING SELECTIVE INHIBITORY ACTION ON KRAS OVER HRAS AND NRAS” (CHUGAI SEIYAKU KABUSHIKI KAISHA, priority 2021, published 2024).

Tests used:
[1] = target: GDP-bound HRAS wild-type protein (Homo sapiens, UniProt P01112); assay: Binding to HRAS by surface plasmon resonance (SPR), Single Cycle Kinetics; details: SPR KD ratio HRAS/KRAS, class symbols
[2] = target: GDP-bound KRAS wild-type protein (Homo sapiens, UniProt P01116); assay: Binding to KRAS by surface plasmon resonance (SPR), Single Cycle Kinetics; details: SPR Single Cycle Kinetics, GDP-bound KRAS wild-type protein, 1:1 binding model; read-out: KRAS KD
Chain of GDP-bound KRAS wild-type protein (P01116 whole entry): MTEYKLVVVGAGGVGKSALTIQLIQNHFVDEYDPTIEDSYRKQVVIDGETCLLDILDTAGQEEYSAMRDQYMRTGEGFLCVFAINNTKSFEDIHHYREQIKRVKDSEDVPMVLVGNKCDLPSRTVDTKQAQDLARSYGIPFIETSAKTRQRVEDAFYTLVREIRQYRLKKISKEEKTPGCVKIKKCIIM

[3] = target: GDP-bound NRAS wild-type protein (Homo sapiens, UniProt P01111); assay: Binding to NRAS by surface plasmon resonance (SPR), Single Cycle Kinetics; details: SPR KD ratio NRAS/KRAS, class symbols
Chain of GDP-bound NRAS wild-type protein (P01111 whole entry): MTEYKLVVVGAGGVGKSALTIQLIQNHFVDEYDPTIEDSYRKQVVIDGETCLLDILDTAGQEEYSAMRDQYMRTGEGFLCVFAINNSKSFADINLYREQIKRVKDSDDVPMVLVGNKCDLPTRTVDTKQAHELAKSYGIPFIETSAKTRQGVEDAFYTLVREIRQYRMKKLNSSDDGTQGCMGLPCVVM

[4] = test system: human lung cancer strain NCI-H441;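 further: cell proliferation inhibition after four days measured by CellTiter-Glo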

Chain of GDP-bound HRAS wild-type protein (P01112 whole entry): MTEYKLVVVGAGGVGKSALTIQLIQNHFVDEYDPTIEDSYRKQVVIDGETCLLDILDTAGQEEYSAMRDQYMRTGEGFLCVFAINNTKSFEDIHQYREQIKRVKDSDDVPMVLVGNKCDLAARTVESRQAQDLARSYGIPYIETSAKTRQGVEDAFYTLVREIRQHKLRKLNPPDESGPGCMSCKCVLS

Compound | HRAS/KRAS (ratio of KD value with respect to GDP-bound HRAS wild-type protein to KD value with respect to KRAS) [1] | Kd [2] [nM] | NRAS/KRAS (ratio of KD value with respect to GDP-bound NRAS wild-type protein to KD value with respect to KRAS) [3] | IC50 [4] [nM]
CCC[C@H]1C(=O)N[C@@H]([C@@H](C)CC)C(=O)N(C)CC(=O)N(C)[C@H]2C/C=C\CCN(C2=O)[C@@H](Cc2ccc(C)cc2)C(=O)N(C)CC(=O)N[C@@H](CCc2ccc(Cl)c(Cl)c2)C(=O)N2C[C@H](OC(C)C)C[C@H]2C(=O)NC2(CC(C)(C)C2)C(=O)N(C)[C@@H](C(CC)CC)C(=O)N(C)[C@H](C(=O)N(C)C)CC(=O)N1C [PP2537] | A (a compound having 10 or more and less than 20 is denoted as A) | 0.74 | AA (a compound having 20 or more is denoted as AA) | 75.1
CCC[C@H]1C(=O)N[C@@H](CC(C)C)C(=O)N(CC)CC(=O)N(C)[C@H]2C/C=C\CCN(C2=O)[C@@H](Cc2ccc(C)cc2)C(=O)N(C)CC(=O)N[C@@H](CCc2cc(F)c(C(F)(F)F)c(F)c2)C(=O)N2C[C@H](OCC)C[C@H]2C(=O)NC2(CCC2)C(=O)N(C)[C@@H](C2CCCC2)C(=O)N(C)[C@H](C(=O)N(C)C)CC(=O)N1C [PP2539] | B (a compound having 3 or more and less than 10 is denoted as B) | 4.3 | A (a compound having 10 or more and less than 20 is denoted as A) | 330
CCC[C@H]1C(=O)N[C@@H](CC(C)C)C(=O)N(CC)CC(=O)N(C)[C@H]2C/C=C\CCN(C2=O)[C@@H](Cc2ccc(C)cc2)C(=O)N(C)CC(=O)N[C@@H](CCc2ccc(C(F)(F)F)c(OC)c2)C(=O)N2C[C@H](OCC)C[C@H]2C(=O)NC2(CCC2)C(=O)N(C)[C@@H](C2CCCC2)C(=O)N(C)[C@H](C(=O)N(C)C)CC(=O)N1C [PP2540] | B (a compound having 3 or more and less than 10 is denoted as B) | 4.6 | A (a compound having 10 or more and less than 20 is denoted as A) | 562
CCC[C@H]1C(=O)N[C@@H](CC(C)C)C(=O)N(CCOC)CC(=O)N(C)[C@H]2C/C=C\CCN(C2=O)[C@@H](Cc2ccc(C)cc2)C(=O)N(C)CC(=O)N[C@@H](CCc2cc(F)c(C(F)(F)F)c(F)c2)C(=O)N2C[C@H](OCC)C[C@H]2C(=O)NC2(CCC2)C(=O)N(C)[C@@H](C2CCCC2)C(=O)N(C)[C@H](C(=O)N(C)C)CC(=O)N1C [PP2541] | B (a compound having 3 or more and less than 10 is denoted as B) | 4.9 | A (a compound having 10 or more and less than 20 is denoted as A) | 374
CCC[C@H]1C(=O)N[C@@H](CC(C)C)C(=O)N(CCOC)CC(=O)N(C)[C@H]2C/C=C\CCN(C2=O)[C@@H](Cc2ccc(C)cc2)C(=O)N(C)CC(=O)N[C@@H](CCc2ccc(C(F)(F)F)c(OC)c2)C(=O)N2C[C@H](OCC)C[C@H]2C(=O)NC2(CCC2)C(=O)N(C)[C@@H](C2CCCC2)C(=O)N(C)[C@H](C(=O)N(C)C)CC(=O)N1C [PP2542] | B (a compound having 3 or more and less than 10 is denoted as B) | 4.6 | B (a compound having 3 or more and less than 10 is denoted as B) | 394
CCC[C@H]1C(=O)N[C@@H](CC(C)C)C(=O)N(CC)CC(=O)N(C)[C@H]2C/C=C\CCN(C2=O)[C@@H](Cc2ccc(C)cc2)C(=O)N(C)CC(=O)N[C@@H](CCc2ccc(C(F)(F)F)c(Cl)c2)C(=O)N2C[C@H](OCC)C[C@H]2C(=O)NC2(CCC2)C(=O)N(C)[C@@H](C2CCCC2)C(=O)N(C)[C@H](C(=O)N(C)C)CC(=O)N1C [PP2545] | A (a compound having 10 or more and less than 20 is denoted as A) | 4.3 | A (a compound having 10 or more and less than 20 is denoted as A) | 279
CCC[C@H]1C(=O)N[C@@H](CC(C)C)C(=O)N(CCOC)CC(=O)N(C)[C@H]2C/C=C\CCN(C2=O)[C@@H](Cc2ccc(C)cc2)C(=O)N(C)CC(=O)N[C@@H](CCc2ccc(C(F)(F)F)c(Cl)c2)C(=O)N2C[C@H](OCC)C[C@H]2C(=O)NC2(CCC2)C(=O)N(C)[C@@H](C2CCCC2)C(=O)N(C)[C@H](C(=O)N(C)C)CC(=O)N1C [PP2546] | B (a compound having 3 or more and less than 10 is denoted as B) | 4.7 | B (a compound having 3 or more and less than 10 is denoted as B) | 295
CCC[C@H]1C(=O)N[C@@H](CC(C)C)C(=O)N2C[C@@H](OC)C[C@H]2C(=O)N(C)[C@H]2C/C=C\CCN(C2=O)[C@@H](Cc2ccc(C)cc2)C(=O)N(C)CC(=O)N[C@@H](CCc2cc(F)c(C(F)(F)F)c(F)c2)C(=O)N2C[C@H](OCC)C[C@H]2C(=O)NC2(CCC2)C(=O)N(C)[C@@H](C2CCCC2)C(=O)N(C)[C@H](C(=O)N(C)C)CC(=O)N1C [PP2547] | B (a compound having 3 or more and less than 10 is denoted as B) | 4.4 | A (a compound having 10 or more and less than 20 is denoted as A) | 1060
CCC[C@H]1C(=O)N[C@@H](CC(C)C)C(=O)N2C[C@@H](OC)C[C@H]2C(=O)N(C)[C@H]2C/C=C\CCN(C2=O)[C@@H](Cc2ccc(C)cc2)C(=O)N(C)CC(=O)N[C@@H](CCc2ccc(C(F)(F)F)c(OC)c2)C(=O)N2C[C@H](OCC)C[C@H]2C(=O)NC2(CCC2)C(=O)N(C)[C@@H](C2CCCC2)C(=O)N(C)[C@H](C(=O)N(C)C)CC(=O)N1C [PP2548] | B (a compound having 3 or more and less than 10 is denoted as B) | 7.8 | A (a compound having 10 or more and less than 20 is denoted as A) | 1050
CCC[C@H]1C(=O)N[C@@H](CC(C)C)C(=O)N2C[C@@H](OC)C[C@H]2C(=O)N(C)[C@H]2C/C=C\CCN(C2=O)[C@@H](Cc2ccc(C)cc2)C(=O)N(C)CC(=O)N[C@@H](CCc2ccc(C(F)(F)F)c(Cl)c2)C(=O)N2C[C@H](OCC)C[C@H]2C(=O)NC2(CCC2)C(=O)N(C)[C@@H](C2CCCC2)C(=O)N(C)[C@H](C(=O)N(C)C)CC(=O)N1C [PP2549] | B (a compound having 3 or more and less than 10 is denoted as B) | 6 | A (a compound having 10 or more and less than 20 is denoted as A) | 506
CCC[C@H]1C(=O)N[C@@H]([C@@H](C)CC)C(=O)N2C[C@@H](OC)C[C@H]2C(=O)N(C)[C@H]2C/C=C\CCN(C2=O)[C@@H](Cc2ccc(C)cc2)C(=O)N(C)CC(=O)N[C@@H](CCc2cc(F)c(C(F)(F)F)c(F)c2)C(=O)N2C[C@H](OCC)C[C@H]2C(=O)NC2(CCC2)C(=O)N(C)[C@@H](C2CCCC2)C(=O)N(C)[C@H](C(=O)N(C)C)CC(=O)N1C [PP2550] | B (a compound having 3 or more and less than 10 is denoted as B) | 0.29 | A (a compound having 10 or more and less than 20 is denoted as A) | 38.5
CCC[C@H]1C(=O)N[C@@H](CC(C)C)C(=O)N2C[C@@H](OC)C[C@H]2C(=O)N(C)[C@H]2C/C=C\CCN(C2=O)[C@@H](Cc2ccc(C)cc2)C(=O)N(C)CC(=O)N[C@@H](CCc2cc(F)c(C(F)(F)F)c(F)c2)C(=O)N2C[C@H](OCC)C[C@H]2C(=O)NC2(CC(C)(C)C2)C(=O)N(C)[C@@H](C2CCCC2)C(=O)N(C)[C@H](C(=O)N(C)C)CC(=O)N1C [PP2553] | B (a compound having 3 or more and less than 10 is denoted as B) | 3.4 | A (a compound having 10 or more and less than 20 is denoted as A) | 121
CCC[C@H]1C(=O)N[C@@H](CC(C)C)C(=O)N2C[C@@H](OC)C[C@H]2C(=O)N(C)[C@H]2C/C=C\CCN(C2=O)[C@@H](Cc2ccc(C)cc2)C(=O)N(C)CC(=O)N[C@@H](CCc2ccc(C(F)(F)F)c(OC)c2)C(=O)N2C[C@H](OCC)C[C@H]2C(=O)NC2(CC(C)(C)C2)C(=O)N(C)[C@@H](C2CCCC2)C(=O)N(C)[C@H](C(=O)N(C)C)CC(=O)N1C [PP2554] | B (a compound having 3 or more and less than 10 is denoted as B) | 5.6 | A (a compound having 10 or more and less than 20 is denoted as A) | 271
